From patent US11691972B2, “Compounds for targeted degradation of BRD9” (C4 Therapeutics, Inc., priority 2020, dated 2023) come the findings set out here.

The structures appear in SMILES notation. Where two headings read alike, the source gives them in different places.

Series [1] concerns the target T1, BRD9 (Homo sapiens, UniProt Q9H8M2).
T1 sequence (Q9H8M2 1-597): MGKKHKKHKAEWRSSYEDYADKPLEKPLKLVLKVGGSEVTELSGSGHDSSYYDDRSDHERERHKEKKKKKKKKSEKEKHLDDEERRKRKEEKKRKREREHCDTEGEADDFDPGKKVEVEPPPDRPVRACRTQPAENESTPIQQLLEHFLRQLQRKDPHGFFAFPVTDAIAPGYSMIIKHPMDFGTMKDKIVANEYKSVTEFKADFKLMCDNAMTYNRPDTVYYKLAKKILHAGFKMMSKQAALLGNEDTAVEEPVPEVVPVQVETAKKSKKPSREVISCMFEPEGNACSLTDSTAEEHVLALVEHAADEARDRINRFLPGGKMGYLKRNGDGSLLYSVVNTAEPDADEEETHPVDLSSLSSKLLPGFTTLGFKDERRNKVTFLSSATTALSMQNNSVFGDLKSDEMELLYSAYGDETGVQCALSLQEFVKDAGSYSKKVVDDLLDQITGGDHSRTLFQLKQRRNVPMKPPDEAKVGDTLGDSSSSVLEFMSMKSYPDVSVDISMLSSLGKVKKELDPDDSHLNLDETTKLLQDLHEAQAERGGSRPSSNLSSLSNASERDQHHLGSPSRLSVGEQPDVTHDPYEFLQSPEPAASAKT
Nature of the series: Western blot of endogenous BRD9 degradation in A204, HS-SY-II, SW982 and Yamato SS cells. Also on record: endogenous in cells; host or cells: Yamato-SS (human synovial sarcoma). The following applies: SW982, Yamato SS cells, 6 hours, FIG. 15. Type of series: cell-based. On the procedure: The top left represents the malignant human rhabdoid tumor (A204), top right represents the human synovial sarcoma (HS-SY-II), the bottom left represents human soft tissue sarcoma (SW982, BAF wildtype) and the bottom right represents synovial sarcoma (Yamato SS), all via western blot.
Cells were plated at 500,000 cells/well in a 6-well plate and allowed to adhere for 16 hours. Each cell line was treated with Compound 176 serially diluted in DMSO for 6 hours. Cell pellets were collected, lysed with RIPA lysis buffer in the presence of protease inhibitors, and run on a 4-12% acrylamide gel for 45 minutes at 150V. Proteins were transferred to a nitrocellulose membrane and incubated with antibodies against BRD9 (1:1000; Cell Signaling Technology, #71232) or Vinculin (1:10,000; EMD, 05-386) overnight with agitation at 4° C. Blots were thrice washed with tris-buffered saline+0.05% tween-20 and incubated with host-directed fluorescently-conjugated antibodies for 1 hour at room temperature. Blots were thrice washed and imaged on a LiCor Odyssey CLx.
In general terms: Immunoblotting shows a protein as a band on a membrane.

The target in series [2] is T1, BRD9. Nature of the series: Western blot of BRD9, BRD4 and BRD7 in Yamato-SS cells. Type of series: cell-based. Also on record: endogenous in cells; host or cells: Yamato-SS (human synovial sarcoma). The following applies: FIG. 3. On the procedure: After treatment cells were collected, lysed in RIPA buffer supplemented with 2× proteasome/protease inhibitor, and protein concentrations were determined by Pierce™ BCA Protein Assay Kit. Samples were diluted to appropriate concentrations and run in a western blot.

A short description of another series: IV PK, dog. Type of series: in vivo.
For a further series, the target named is CYP 2C9 (Homo sapiens, UniProt P11712). Nature of the series: CYP inhibition 2C9. It counts as in vitro ADME.
Series [3] addresses BRD9 (Mus musculus, UniProt Q3UQU0). In words: BRD9 degradation in mouse cells (24 h). It counts as cell-based.
The target in series [4] is BRD9 (Canis lupus familiaris, UniProt A0A8I3PU24). Nature of the series: BRD9 degradation in dog cells (24 h). It counts as cell-based.
In the next series the test system is SA13412. Nature of the series: Synovial sarcoma patient derived xenograft (PDX) model (SA13412), tumor volume. Type of series: in vivo, mice. The following applies: 40 mg/kg orally once a day, 20 days of treatment. On the procedure: The x-axis is days after start of treatment measured in days and the y-axis is tumor volume measured in mm^3. The mice were dosed with 40 mg/kg of Compound 172 orally once a day. […] The x axis is treatment measured in days and the y axis is mean tumor volume+SEM measured in cubic millimeters (mm^3). Compound 176 was dosed at 50 mg/kg once a day, 25 mg/kg twice a day, and 16.6 mg/kg three times a day.
(In general: Xenograft models place foreign cells or tissue in a host animal.)

The next series has as its target IKZF1 (Homo sapiens, UniProt Q13422). In words: IKZF1 degradation. It counts as cell-based. Conditions: one value given for IKZF1/SALL4/GSPT1.
For a further series, the target named is SALL4 (Homo sapiens, UniProt Q9UJQ4). Nature of the series: SALL4 degradation. It counts as cell-based. Conditions: one value given for IKZF1/SALL4/GSPT1.
For the next series, the target named is CYP 1A2 (Homo sapiens, UniProt P05177). In words: CYP inhibition 1A2. It counts as in vitro ADME.
In another series the target is CYP 2C19 (Homo sapiens, UniProt P33261). Nature of the series: CYP TDI (time-dependent inhibition). It counts as in vitro ADME.
CYP 2C19, sequence (P33261 whole entry): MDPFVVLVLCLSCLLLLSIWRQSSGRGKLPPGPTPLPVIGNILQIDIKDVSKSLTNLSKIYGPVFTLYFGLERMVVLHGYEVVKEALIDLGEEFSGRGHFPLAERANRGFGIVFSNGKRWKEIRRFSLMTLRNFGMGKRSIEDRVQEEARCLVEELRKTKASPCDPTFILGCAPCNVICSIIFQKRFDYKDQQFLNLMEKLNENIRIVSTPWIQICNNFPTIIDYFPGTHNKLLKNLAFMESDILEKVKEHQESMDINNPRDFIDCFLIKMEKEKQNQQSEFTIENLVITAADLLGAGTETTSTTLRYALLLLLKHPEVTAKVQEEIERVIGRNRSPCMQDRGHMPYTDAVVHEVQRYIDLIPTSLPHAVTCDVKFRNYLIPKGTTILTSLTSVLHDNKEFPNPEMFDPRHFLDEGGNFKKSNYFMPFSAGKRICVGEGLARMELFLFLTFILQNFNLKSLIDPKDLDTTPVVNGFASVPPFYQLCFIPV

BRD9 (Canis lupus familiaris, UniProt A0A8I3PU24), sequence (A0A8I3PU24 1-600): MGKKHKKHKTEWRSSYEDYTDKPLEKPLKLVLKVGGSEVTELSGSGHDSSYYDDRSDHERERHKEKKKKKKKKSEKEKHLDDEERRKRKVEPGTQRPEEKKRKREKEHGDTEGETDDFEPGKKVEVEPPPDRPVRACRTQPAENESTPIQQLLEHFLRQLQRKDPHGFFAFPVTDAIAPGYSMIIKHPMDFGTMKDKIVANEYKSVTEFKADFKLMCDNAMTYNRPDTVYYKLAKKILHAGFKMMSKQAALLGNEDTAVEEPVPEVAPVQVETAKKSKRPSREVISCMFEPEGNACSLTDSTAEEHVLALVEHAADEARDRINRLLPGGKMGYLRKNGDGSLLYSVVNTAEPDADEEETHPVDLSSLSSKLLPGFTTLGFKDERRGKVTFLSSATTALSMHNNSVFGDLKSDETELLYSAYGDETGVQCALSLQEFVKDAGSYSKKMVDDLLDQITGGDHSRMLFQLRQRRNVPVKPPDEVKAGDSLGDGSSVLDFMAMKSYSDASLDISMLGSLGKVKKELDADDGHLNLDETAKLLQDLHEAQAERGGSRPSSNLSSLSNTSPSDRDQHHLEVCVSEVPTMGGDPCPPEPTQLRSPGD
BRD9 (Mus musculus, UniProt Q3UQU0), sequence (Q3UQU0 whole entry): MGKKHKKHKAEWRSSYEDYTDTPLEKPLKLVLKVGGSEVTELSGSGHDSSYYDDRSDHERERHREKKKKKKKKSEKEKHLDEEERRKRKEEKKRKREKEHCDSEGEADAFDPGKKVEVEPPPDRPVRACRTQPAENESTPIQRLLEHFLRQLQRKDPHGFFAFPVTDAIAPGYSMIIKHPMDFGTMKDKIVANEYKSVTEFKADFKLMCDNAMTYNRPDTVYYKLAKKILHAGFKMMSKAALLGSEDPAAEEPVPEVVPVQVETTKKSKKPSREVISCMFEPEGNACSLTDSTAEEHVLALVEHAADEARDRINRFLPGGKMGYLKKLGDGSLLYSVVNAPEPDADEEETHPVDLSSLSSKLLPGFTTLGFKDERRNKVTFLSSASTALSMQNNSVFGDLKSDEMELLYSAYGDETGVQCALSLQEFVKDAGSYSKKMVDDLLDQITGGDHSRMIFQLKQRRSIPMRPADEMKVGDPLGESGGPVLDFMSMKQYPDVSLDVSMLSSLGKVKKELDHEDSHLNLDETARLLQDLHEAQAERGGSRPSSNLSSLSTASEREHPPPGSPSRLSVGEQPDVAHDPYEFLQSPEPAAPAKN
CYP 1A2, sequence (P05177 whole entry): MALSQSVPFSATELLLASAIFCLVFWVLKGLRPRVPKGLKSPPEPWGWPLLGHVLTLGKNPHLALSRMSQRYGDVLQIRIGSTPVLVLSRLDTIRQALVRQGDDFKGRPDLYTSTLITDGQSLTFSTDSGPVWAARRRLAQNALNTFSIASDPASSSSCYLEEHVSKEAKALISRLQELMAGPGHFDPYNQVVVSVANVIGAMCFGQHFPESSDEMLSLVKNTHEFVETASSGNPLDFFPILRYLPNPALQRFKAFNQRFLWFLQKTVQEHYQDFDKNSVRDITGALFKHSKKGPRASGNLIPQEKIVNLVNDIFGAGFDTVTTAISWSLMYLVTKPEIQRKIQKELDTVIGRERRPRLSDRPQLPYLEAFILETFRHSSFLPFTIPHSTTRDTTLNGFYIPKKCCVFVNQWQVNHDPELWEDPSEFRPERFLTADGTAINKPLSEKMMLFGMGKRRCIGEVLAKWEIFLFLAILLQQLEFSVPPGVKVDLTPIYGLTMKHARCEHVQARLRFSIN
CYP 2C9, sequence (P11712 whole entry): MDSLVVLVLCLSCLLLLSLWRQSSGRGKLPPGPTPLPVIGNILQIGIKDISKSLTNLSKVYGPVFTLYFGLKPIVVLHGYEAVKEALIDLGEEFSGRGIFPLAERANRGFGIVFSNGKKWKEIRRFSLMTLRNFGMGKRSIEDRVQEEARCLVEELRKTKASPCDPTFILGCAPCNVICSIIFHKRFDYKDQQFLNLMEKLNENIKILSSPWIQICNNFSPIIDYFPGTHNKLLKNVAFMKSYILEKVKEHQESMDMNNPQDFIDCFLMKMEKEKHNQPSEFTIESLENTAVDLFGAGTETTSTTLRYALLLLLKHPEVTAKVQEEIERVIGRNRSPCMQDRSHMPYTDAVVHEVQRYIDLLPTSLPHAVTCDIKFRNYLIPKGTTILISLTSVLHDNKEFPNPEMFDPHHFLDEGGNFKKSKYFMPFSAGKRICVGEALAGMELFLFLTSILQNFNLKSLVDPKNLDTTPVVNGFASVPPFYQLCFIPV
SALL4, sequence (Q9UJQ4 whole entry, species assumed): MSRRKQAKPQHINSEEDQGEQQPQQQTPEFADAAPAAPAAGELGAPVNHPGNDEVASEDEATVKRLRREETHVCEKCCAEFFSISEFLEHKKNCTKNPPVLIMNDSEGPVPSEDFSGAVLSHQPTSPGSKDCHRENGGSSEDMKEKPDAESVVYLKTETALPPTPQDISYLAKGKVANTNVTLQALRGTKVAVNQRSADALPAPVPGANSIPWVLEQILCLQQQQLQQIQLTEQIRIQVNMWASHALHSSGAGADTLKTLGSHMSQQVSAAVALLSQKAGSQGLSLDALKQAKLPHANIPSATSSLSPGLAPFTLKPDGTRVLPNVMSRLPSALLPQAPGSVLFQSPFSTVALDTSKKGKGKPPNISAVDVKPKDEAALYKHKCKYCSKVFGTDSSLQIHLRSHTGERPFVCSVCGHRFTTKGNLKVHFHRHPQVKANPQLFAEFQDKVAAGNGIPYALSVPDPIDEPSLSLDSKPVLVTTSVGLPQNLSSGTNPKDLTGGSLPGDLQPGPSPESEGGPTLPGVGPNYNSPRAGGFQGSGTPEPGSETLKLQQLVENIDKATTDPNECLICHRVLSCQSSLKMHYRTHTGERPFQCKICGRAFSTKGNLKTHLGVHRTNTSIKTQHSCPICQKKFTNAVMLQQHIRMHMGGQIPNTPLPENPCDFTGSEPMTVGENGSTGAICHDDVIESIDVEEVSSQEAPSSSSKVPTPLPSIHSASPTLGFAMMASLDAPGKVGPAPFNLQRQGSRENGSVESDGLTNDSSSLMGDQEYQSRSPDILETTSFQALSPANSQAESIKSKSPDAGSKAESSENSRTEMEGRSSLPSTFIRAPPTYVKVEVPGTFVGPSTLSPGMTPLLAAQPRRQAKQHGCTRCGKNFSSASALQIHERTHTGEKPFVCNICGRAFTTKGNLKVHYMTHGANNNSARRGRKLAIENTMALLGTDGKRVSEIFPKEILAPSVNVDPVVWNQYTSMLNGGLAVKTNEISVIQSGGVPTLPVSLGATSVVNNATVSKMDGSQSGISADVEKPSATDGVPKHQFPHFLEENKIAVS
IKZF1, sequence (Q13422 whole entry, species assumed): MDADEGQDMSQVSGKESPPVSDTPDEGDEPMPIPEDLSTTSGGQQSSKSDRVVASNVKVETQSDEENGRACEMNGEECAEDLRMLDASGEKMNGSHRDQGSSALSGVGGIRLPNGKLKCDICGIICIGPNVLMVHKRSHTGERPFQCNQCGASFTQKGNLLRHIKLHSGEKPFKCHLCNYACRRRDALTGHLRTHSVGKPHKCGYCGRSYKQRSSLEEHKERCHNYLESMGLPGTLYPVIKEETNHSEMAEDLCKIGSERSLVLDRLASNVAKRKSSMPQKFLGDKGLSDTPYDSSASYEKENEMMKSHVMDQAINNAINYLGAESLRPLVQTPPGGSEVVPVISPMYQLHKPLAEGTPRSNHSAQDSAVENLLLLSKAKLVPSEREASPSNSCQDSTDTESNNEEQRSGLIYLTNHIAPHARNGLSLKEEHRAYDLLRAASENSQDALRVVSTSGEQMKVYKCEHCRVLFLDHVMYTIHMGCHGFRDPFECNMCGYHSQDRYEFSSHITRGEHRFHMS

`COc1cc(-c2cn(C)c(=O)c(C)c2C)cc(OC)c1CN1CCC(N2CCN(c3ccc(NC4CCC(=O)NC4=O)cc3F)CC2)C(F)(F)C1` (single isomer, unassigned) [Compound 176, 3-[4-[4-[1-[[2,6-dimethoxy-4-(1,4,5-trimethyl-6-oxo-3-pyridyl)phenyl]methyl]-3,3-difluoro-4-piperidyl]piperazin-1-yl]-3-fluoro-anilino]piperidine-2,6-dione]: the “degradation of alpha BRD9, western blot” value at BRD9 [1] is given as “dose dependent degradation of alpha BRD9”.

Take `COc1cc(-c2cn(C)c(=O)c(C)c2C)cc(OC)c1CN1CCC(N2CCN(c3ccc(NC4CCC(=O)NC4=O)cc3F)CC2)C(F)(F)C1` (stereo not drawn) [Compound 172, 3-[4-[4-[1-[[2,6-dimethoxy-4-(1,4,5-trimethyl-6-oxo-3-pyridyl)phenyl]methyl]-3,3-difluoro-4-piperidyl]piperazin-1-yl]-3-fluoro-anilino]piperidine-2,6-dione]: on BRD9 [2], the “degradation of BRD9 versus BRD4 and BRD7, western blot” value is “dose response degradation specific to BRD9, and not bromodomain containing proteins BRD4 and BRD7”. Also, in “IV PK, dog” (dose-normalised), the “IV PK AUC(0-last)” value is on record as 2343 (h*ng/mL)/(mg/kg). The “IV PK Cmax” value in the series “IV PK, dog” (dose-normalised) is 767 [ng/mL]/(mg/kg). The clearance in the series “IV PK, dog” (in vivo, read-out: IV PK CL) came out at 6.2 mL/min/kg. For the same molecule, in the series “IV PK, dog” (in vivo, read-out: IV PK Vdss), the Vd came out at 4.36 L/kg. For the same molecule, the half-life in the series “IV PK, dog” (in vivo, read-out: IV PK t1/2 (converted)) was 8.8 h. In addition, the IC50 was 30 µM at CYP 2C9; 30 µM against CYP 1A2; greater than 50 µM at CYP 2C19 (2C19, first of two values in brackets, read-out: CYP TDI 2C19, first value); 24 µM at CYP 2C19 (2C19, second of two values in brackets, read-out: CYP TDI 2C19, second value). At BRD9 [3], the “BRD9 degradation mouse cells (24 h), percent” value came to 36%. For the same molecule, the DC50 was 0.099 µM at BRD9 [3] (read-out: BRD9 degradation mouse cells (24 h), concentration); 0.099 µM on BRD9 [4] (read-out: BRD9 degradation dog cells (24 h), concentration); greater than 9.99 µM at IKZF1; greater than 9.99 µM on SALL4. Moreover, on BRD9 [4], the “BRD9 degradation dog cells (24 h), percent” value is 36.4%. In the series with SA13412, the “tumor volume, PDX model (SA13412)” value is “no appreciable tumor growth”.
